Test results taken from article PMC4741889, “Ligand-based chemoinformatic discovery of a novel small molecule inhibitor targeting CDC25 dual specificity phosphatases and displaying in vitro efficacy against melanoma cells” (Oncotarget, 2015).

Columns and labels:
[1] = tested on: K562 leukaemia cancer cell line; design: method as in PMID 22524450; details: cited from earlier work
A2058 cells = assay: MTT cell growth rate, A2058 melanoma cells; type: cell-based, human; details: A2058, 100 μM, 48 h, MTT
Protocol: (§1) The human melanoma cell line A2058, kindly provided by CEINGE (Naples, Italy), and SAN cells were derived from lymph nodal metastases and grown in DMEM and RPMI 1640, respectively, supplemented with 10% FBS, 2 mM L-glutamine, 100 IU/mL penicillin G, and 100 μg/mL streptomycin in humidified incubator at 37°C under 5% CO2 atmosphere. All cells were split and seeded every three days and used during the exponential phase of growth. Cell treatments were always carried after 24 h from plating.
(§2) The MTT assay was used to detect cell proliferation essentially as previously described. Briefly, A2058 and SAN cells were plated in 96-well microtiter plates (100 μL/well) at 4000 and 6000 cells/well, respectively. After 24-h seeding, cells were treated with the selected compounds added at 25, 50 or 100 μM concentration, or with 0.5% (v/v) DMSO as a vehicle control. After 24-h, 48-h or 72-h treatment, and upon the addition of 10 μL of MTT solution in the dark, the plate was incubated for 3 h at 37°C under CO2 atmosphere. After medium aspiration and solubilization of formazan crystals, absorbance was measured at 570 nm, using an ELISA plate reader (Bio-Rad, Milano, Italy).

CDC25C = target: T1, CDC25C (Homo sapiens, UniProt P30307); assay: Ki from OMFP hydrolysis kinetics (Lineweaver-Burk), CDC25C; type: biochemical; details: 40 nM CDC25C, 1–25 μM OMFP; mean ± S.E.; read-out: Ki CDC25C
T1 construct: Recombinant forms of the catalytic domains of CDC25A, -B and -C were obtained through the vectors pET28a-CDC25A-cd, pET28a-CDC25B-cd and pET28a-CDC25C-cd; made in house
T1 sequence (P30307 321-428 limits assumed): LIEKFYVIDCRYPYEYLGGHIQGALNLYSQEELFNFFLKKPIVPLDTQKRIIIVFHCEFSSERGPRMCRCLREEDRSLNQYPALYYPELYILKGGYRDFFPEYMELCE
Protocol: To measure the inhibition constant (Ki) of the recombinant forms of CDC25A, -B and -C towards the various inhibitors, the affinity of the different forms of CDC25 towards OMFP was measured either in the absence or in the presence of fixed concentrations of the various inhibitors. The reaction mixture contained 20 nM CDC25A, or 10 nM CDC25B, or 40 nM CDC25C, and different concentrations of the various inhibitors in 500 μL final volume of 20 mM Tris-HCl, pH 7.8, 1 mM DTT. DMSO was used as vehicle control. […] The corresponding Lineweaver-Burk plots allowed the calculation of the KM for OMFP and of the Vmax of OMFP hydrolysis, expressed as a.u./minmax. […] The Ki values were obtained from the decrease of a.u./minmax in the presence of the inhibitor, according to the equation a.u./mimmax’ = a.u./mimmax/{1 + ([I]/Ki)}, where a.u./mimmax’ represents the Vmax measured in the presence of the concentration [I] of the inhibitor. The Ki values were obtained from at least three independent experiments and reported as mean ± S.E.

[2] = tested on: MCF-7 breast cancer cell line; design: method as in PMID 22524450; details: cited from earlier work
CDC25B = target: T2, CDC25B (Homo sapiens, UniProt P30305); assay: Residual phosphatase activity of recombinant CDC25B, fluorimetric OMFP assay; type: biochemical; details: 10 nM CDC25B, 25 μM OMFP, read-out: CDC25B residual activity (%) in the presence of [inhibitor]
T2 construct: Recombinant forms of the catalytic domains of CDC25A, -B and -C were obtained through the vectors pET28a-CDC25A-cd, pET28a-CDC25B-cd and pET28a-CDC25C-cd; made in house
T2 sequence (P30305 431-538 limits assumed): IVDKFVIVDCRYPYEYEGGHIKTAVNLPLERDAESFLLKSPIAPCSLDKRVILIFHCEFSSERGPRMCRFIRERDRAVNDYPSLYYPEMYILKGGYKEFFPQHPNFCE
Protocol: Among the twenty-five structures identified from the multiple ligand-based chemoinformatic approach, eight compounds (2, 10, 12–14, and 16–18) were excluded from the analysis, because endowed with a strong fluorescent signal, which interfered with the emission wavelength of the synthetic substrate 3-O-methylfluorescein phosphate (OMFP) used in the fluorimetric assay. The inhibition of the phosphatase activity of CDC25B by the remaining seventeen analogs was evaluated in the presence of two different concentrations of these compounds (Table 2). […] For this reason, only one of these latter compounds, i.e. 3, was included in the following analysis.
The enzymatic activity of the catalytic domains of CDC25A, -B and -C were determined through a fluorimetric method, which monitored the dephosphorylation of the synthetic substrate OMFP, essentially as previously described. In steady-state enzyme kinetic studies, the residual phosphatase activity of purified recombinant CDC25B was measured at 30°C in the presence of different concentrations of the various inhibitors, using a computer-assisted Cary Eclipse spectrofluorimeter (Varian) equipped with an electronic temperature controller. Excitation and emission wavelengths were set at 485 and 530 nm, respectively; both excitation and emission slits were set at 10 nm. The reaction mixture contained 10 nM CDC25B and different concentrations of the various inhibitors in 500 μL final volume of 20 mM Tris-HCl, pH 7.8, 1 mM DTT. DMSO was used as vehicle control. The reaction started by the addition of 25 μM OMFP, and the formation of the fluorescent product o-methylfluorescein was monitored continuously. The rate of OMFP hydrolysis was expressed as arbitrary units per min (a.u./min). The comparison of the rates determined in the absence and in the presence of the various inhibitors allowed the calculation of the residual phosphatase activity, expressed as a percentage.

[3] = tested on: PC-3 prostate cancer cell line; design: method as in PMID 22524450; details: cited from earlier work
SAN cells [4] = assay: MTT cell growth rate, SAN melanoma cells; type: cell-based, human; details: 100 μM, 72 h, MTT (not shown)
Protocol: as §1, §2

SAN cells [5] = assay: Intracellular ROS level (DCFH-DA), SAN cells; type: cell-based, human; details: SAN cells not treated with 7, 0.5 mM apocynin
Protocol: The high redox reactivity of quinonoid molecules, like compound 7, could greatly perturb the intracellular redox state. […] The oxidant effect of 7 was also evaluated after cell pre-treatment with two antioxidant molecules, such as N-acetyl-cysteine (NAC) and the specific inhibitor of NADPH oxidase, apocynin. To this aim, A2058 and SAN cells were pre-incubated for 1 h with 10 mM NAC or 45 min with 0.5 mM apocynin and then treated for 4 h with 100 μM compound 7. […] The cytotoxic activity of 7 could be mediated by the observed increase of ROS level.
The intracellular ROS level was monitored using the oxidation-sensitive fluorescence probe DCFH-DA. Cells were seeded into 6-well-plates (3 × 10^5 cells/plate) for 24 h at 37°C and then treated at various times with 100 μM compound 7 or 0.5% DMSO. DCFH-DA was added in the dark at 10 μM final concentration 30-min before the end of each incubation; then, cells were collected, washed in PBS, and finally resuspended in 500 μL PBS for fluorimetric analysis. Measurements were realized in a Cary Eclipse fluorescence spectrophotometer (Varian); excitation and emission wavelengths were set at 485 nm and 530 nm, respectively; both excitation and emission slits were set at 10 nm. The effect of 7 on ROS production was also estimated after pretreatment of cells with 10 mM NAC for 1 h.
Supplementary Figure S5: ROS production and their involvement in the apoptotic process of SAN cells, as induced by treatment with compound 7. A. Time-dependent measurement of ROS production. Cells were incubated with 0.5% DMSO (open bars) or 100 μM compound 7 (black bars) and then the intracellular ROS level was measured. B. Effect of antioxidant molecules on ROS production. The ROS level was also measured in cells untreated or pretreated with NAC or apocynin after a 4-h incubation with DMSO or 7. C. Effect of NAC on apoptosis. The PI incorporation was evaluated in cells untreated or pretreated with NAC after a 48-h incubation with DMSO or 7. ROS production was expressed as a.u., and apoptosis as a percentage. […]

| Ki (CDC25C) | remaining activity at 0.2 µM (CDC25B; 0.2 μM inhibitor) | remaining activity at 1 µM (CDC25B; 1 μM inhibitor) | SMILES | growth of cancer cell line [1] | cell growth rate (A2058 cells) | growth of cancer cell line [2] | growth of cancer cell line [3] | cell growth rate (SAN cells [4]) | basal intracellular redox state (SAN cells [5]) |
| --- | --- | --- | --- | --- | --- | --- | --- | --- | --- |
| 240 ± 130 nM | 38% | 2% | O=C(O)CCc1c2ccc(=O)c(O)c-2oc2c(O)c(O)ccc12 [NSC 119915, reference compound] | significantly inhibited the growth | quite ineffective or caused a not significant reduction of cell growth rate | significantly inhibited the growth | significantly inhibited the growth | significant reduction of cell growth rate | – |
| – | – | – | COc1cc(C(C)=O)ccc1O [apocynin, reference compound] | – | – | – | – | – | raised the basal intracellular redox state |
